Measurements taken from patent US7910593B2, “Water-soluble prodrugs” (Chugai Seiyaku Kabushiki Kaisha, priority 2004, dated 2011).

Tests used:
[1] = Test Example 1: conversion of compound 2A into activated form in monkey serum; type: in vitro ADME; details: for compound 2A (measured values, %): monkey serum, 50 μM, 37° C.
Procedure: The percentages of compound 2A produced in Example 2 being converted into an activated form in sera of humans, mice, monkeys, and dogs were determined. The activated form is in a rapid equilibrium between the lactone form and the carboxylate form, which were quantified separately.
Compound 2A was incubated at 37° C. at a concentration of 50 μM in sera of humans, mice, monkeys, and dogs. Incubation was terminated at a given time (0, 30, 60, 120, and 360 minutes), and the samples were analyzed by HPLC after deproteinization treatments.
Conditions for the HPLC analysis are as follows: • HPLC conditions • Column: Develosil C30-UG-3, 3 μm, 50×4.6 mm I.D • Column Temperature: constant temperature at approximately 25° C. • Mobile phase: A: 10 mM phosphate buffer (pH4.7) • B: acetonitrile • /B (min): 90/10(0)→90/10(0.4)→40/60(6)→2/98(8)→90/10(9)→90/10(15)
Flow rate: 1.0 mL/min • Detection: photodiode array detector, detection wavelength 350 nm • Amount injected: 30 μL
(§1) Generally, camptothecins in solution are in a rapid equilibrium between a structure in which the carbonyl at position 3 forms a 6-membered cyclic ester with the oxygen at position 2, and its open-ring structure. The lactone form refers to the former condition and the carboxylate form refers to the latter condition.

[2] = Test Example 2: stability at various pH values in buffers; type: physicochemical; details: for Percent remaining: 25 μM, 25° C.
Procedure: The stability of compound 2A at various pH values was determined. The present compound was placed in buffers of various pHs at a concentration of 25 μM. After incubation at 25° C. for 0, 3, and 6 hours, the compound was analyzed by HPLC.
The buffers used at each pH are shown below. • pH2.0: 50 mM HCl-KCl buffer • pH3.0: 50 mM citrate buffer • pH4.0: 50 mM citrate buffer • pH5.0: 50 mM succinate buffer • pH6.5: 50 mM phosphate buffer • pH7.4: 50 mM phosphate buffer
Conditions for HPLC analysis are as follows: • HPLC conditions • Column: Develosil C30-UG-3, 3 μm, 50×4.6 mm I.D • Column Temperature: constant temperature at approximately 25° C. • Mobile phase: A: 10 mM phosphate buffer (pH4.7) • B: acetonitrile • (min): 90/10(0)→90/10(0.4)→40/60(6)→2/98(8)→90/10(9)→90/10(15) • Flow rate: 1.0 mL/min • Detection: photodiode array detector, detection wavelength 350 nm • Amount injected: 30 μL

[3] = Test Example 3: solubility in distilled water; type: physicochemical; details: distilled water; read-out: Solubility in distilled water
Description: The solubility of the water-soluble prodrugs obtained in the Examples (compounds 1A to 8A) in distilled water was compared to the solubility of (9S)-9-ethyl-9-hydroxy-1-pentyl-1H,12H-pyrano[3″,4″:6′,7′]indolizino[1′,2′:6,5]pyrido[4,3,2-de]quinazoline-10,13 (9H,15H)-dione (representative compound in Patent document 2: reference compound 1).

[4] = Test Example 5: conversion of compound 2A into activated form in mouse sera; type: in vitro ADME; details: for compound 2A (measured values, %): Test Example 5, mouse sera, 50 μM, 37° C.
Procedure: (§2) The percentages of compound 2A produced in Example 2 being converted into an activated form in sera of humans, rats, mice, monkeys, and dogs were determined. The activated form is in a rapid equilibrium between the lactone form and the carboxylate form, which were quantified separately.
(§3) Compound 2A was incubated at 37° C. at a concentration of 50 μM in sera of humans, mice, rats, monkeys, and dogs. Incubation was terminated at a given time (0, 30, 60, 120, and 360 minutes), and the samples were analyzed by HPLC after deproteinization treatments.
(§4) Conditions for the HPLC analysis are as follows: • HPLC conditions • Column: Develosil C30-UG-3, 3 μm, 35×4.6 mm I.D • Column Temperature: constant temperature at approximately 25° C. • Mobile phase: A: 10 mM phosphate buffer (pH4.7) • B: acetonitrile • /B (min): 90/10(0)→90/10(0.4)→40/60(6)→2/98(8)→90/10(9)→90/10(15) • Flow rate: 1.0 mL/min • Detection: photodiode array detector, detection wavelength 350 nm • Amount injected: 30 μL
as §1

[5] = Test Example 5: conversion of compound 2A into activated form in rat sera; type: in vitro ADME; details: for compound 2A (measured values, %): Test Example 5, rat sera, 50 μM, 37° C.
Procedure: as §2, §3, §4, §1

CCCCCN1C=Nc2cccc3nc4c(c1c23)Cn1c-4cc2c(c1=O)COC(=O)[C@@]2(CC)OC(=O)CN(C)C(=O)CN.Cl [Compound 2A, (9S)-9-Ethyl-9-(glycyl-sarcosyloxy)-1-pentyl-1H,12H-pyrano[3″,4″:6′,7′]indolizino[1′,2′:6,5]pyrido[4,3,2-de]quinazoline-10,13(9H,15H)-dione hydrochloride]
stable: stability (in words) ([2]; up to pH3)
100%: Percent remaining ([2]; pH 2.0, 50 mM HCl-KCl buffer, 0 hr) | Percent remaining ([2]; pH 3.0, 50 mM citrate buffer, 0 hr) | Percent remaining ([2]; pH 4.0, 50 mM citrate buffer, 0 hr) | Percent remaining ([2]; pH 5.0, 50 mM succinate buffer, 0 hr) | Percent remaining ([2]; pH 6.5, 50 mM phosphate buffer, 0 hr) | Percent remaining ([2]; pH 7.4, 50 mM phosphate buffer, 0 hr)
> 10000 µg/mL: solubility [3]
quickly converted to the lactone form: conversion to the lactone form (in words) ([1]; monkey sera, Test Example 1) | conversion to the lactone form (in words) ([4]; mouse sera, Test Example 5) | conversion to the lactone form (in words) ([5]; rat sera, Test Example 5)
76.6%: Percent remaining ([2]; pH 5.0, 50 mM succinate buffer, 3 hr)
100.3%: Percent remaining ([2]; pH 3.0, 50 mM citrate buffer, 3 hr)
96.1%: Percent remaining ([2]; pH 4.0, 50 mM citrate buffer, 6 hr)
101.1%: Percent remaining ([2]; pH 2.0, 50 mM HCl-KCl buffer, 6 hr) | Percent remaining ([2]; pH 3.0, 50 mM citrate buffer, 6 hr)
101.6%: Percent remaining ([2]; pH 2.0, 50 mM HCl-KCl buffer, 3 hr)
0%: compound 2A (measured values, %) ([1]; incubation 0 minutes) | compound 2A (measured values, %) ([1]; incubation 30 minutes) | compound 2A (measured values, %) ([1]; incubation 60 minutes) | compound 2A (measured values, %) ([1]; incubation 120 minutes) | compound 2A (measured values, %) ([1]; incubation 360 minutes) | Percent remaining ([2]; pH 6.5, 50 mM phosphate buffer, 3 hr) | Percent remaining ([2]; pH 6.5, 50 mM phosphate buffer, 6 hr) | Percent remaining ([2]; pH 7.4, 50 mM phosphate buffer, 3 hr) | Percent remaining ([2]; pH 7.4, 50 mM phosphate buffer, 6 hr) | compound 2A (measured values, %) ([4]; incubation 0 minutes) | compound 2A (measured values, %) ([4]; incubation 30 minutes) | compound 2A (measured values, %) ([4]; incubation 60 minutes) | compound 2A (measured values, %) ([4]; incubation 120 minutes) | compound 2A (measured values, %) ([4]; incubation 360 minutes) | compound 2A (measured values, %) ([5]; incubation 0 minutes) | compound 2A (measured values, %) ([5]; incubation 30 minutes) | compound 2A (measured values, %) ([5]; incubation 60 minutes) | compound 2A (measured values, %) ([5]; incubation 120 minutes) | compound 2A (measured values, %) ([5]; incubation 360 minutes)
98.2%: Percent remaining ([2]; pH 4.0, 50 mM citrate buffer, 3 hr)
58.7%: Percent remaining ([2]; pH 5.0, 50 mM succinate buffer, 6 hr)
